Reference: the supplement of paper PMC10307832

What was measured:
[1] = compound: CC1=CC(=C(N1C2=CC=C(C=C2)Cl)C)C(=O)CN3CCCCC3 [IU1-47]; assay: relative viability (nuclei count vs DMSO), 5 days (fraction); higher = more cells survive
In short: (§1)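 A plate was accepted only when its control CV was below 25% and the cells had doubled at least once. Viability is defined from nuclear counts as treated wells divided by vehicle wells, with the median taken across plates. That median covers lung cancer cell lines grown in 1536-well plates, dosed by pinning at five √10-spaced library-drug concentrations, and counted in MetaXpress from 4× Hoechst images after 5 days.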

[2] = compound: Cc1nc(C(=O)NCC(=O)O)c(O)c2ccc(Oc3ccccc3)cc12 [FG-4592]; assay: as above
In short: as §1

For NCI-H2126, the relative viability ([1]; 0.08 µM) was 1.09, the relative viability ([1]; 0.253 µM) was 1.02 and the relative viability ([1]; 0.8 µM) was 1.1. It also gave a relative viability ([1]; 2.53 µM) of 0.698, a relative viability ([1]; 8 µM) of 0.957 and a relative viability ([2]; 0.08 µM) of 0.969. The relative viability ([2]; 0.253 µM) was 0.906, the relative viability ([2]; 0.8 µM) was 0.82 and the relative viability ([2]; 2.53 µM) was 0.846. For the same cell line, the relative viability ([2]; 8 µM) was 0.901.

For NCI-H2170, the relative viability ([1]; 0.08 µM) was 1.24, the relative viability ([1]; 0.253 µM) was 1.15 and the relative viability ([1]; 0.8 µM) was 1.07. For the same cell line, the relative viability ([1]; 2.53 µM) was 0.996, the relative viability ([1]; 8 µM) was 1.04 and the relative viability ([2]; 0.08 µM) was 0.911. For the same cell line, the relative viability ([2]; 0.253 µM) was 0.975, the relative viability ([2]; 0.8 µM) was 0.851 and the relative viability ([2]; 2.53 µM) was 0.921. It also gave a relative viability ([2]; 8 µM) of 0.718.

Work on NCI-H2228 yielded a relative viability ([1]; 0.08 µM) of 1.04, a relative viability ([1]; 0.253 µM) of 1.14 and a relative viability ([1]; 0.8 µM) of 1.06. The relative viability ([1]; 2.53 µM) was 0.986, the relative viability ([1]; 8 µM) was 0.709 and the relative viability ([2]; 0.08 µM) was 0.905. It also gave a relative viability ([2]; 0.253 µM) of 0.868, a relative viability ([2]; 0.8 µM) of 0.899 and a relative viability ([2]; 2.53 µM) of 1.02. It also gave a relative viability ([2]; 8 µM) of 0.644.

Cell Line NCI-H2342 has a relative viability ([1]; 0.08 µM) of 1.03, a relative viability ([1]; 0.253 µM) of 1.03 and a relative viability ([1]; 0.8 µM) of 1.28. It also gave a relative viability ([1]; 2.53 µM) of 1.15, a relative viability ([1]; 8 µM) of 0.985 and a relative viability ([2]; 0.08 µM) of 0.985. The relative viability ([2]; 0.253 µM) was 0.97, the relative viability ([2]; 0.8 µM) was 0.839 and the relative viability ([2]; 2.53 µM) was 0.812. For the same cell line, the relative viability ([2]; 8 µM) was 0.82.

In the case of NCI-H2347, the relative viability ([1]; 0.08 µM) is reported as 1.11, the relative viability ([1]; 0.253 µM) is reported as 1.02 and the relative viability ([1]; 0.8 µM) is reported as 1.04. It also gave a relative viability ([1]; 2.53 µM) of 0.828, a relative viability ([1]; 8 µM) of 1.01 and a relative viability ([2]; 0.08 µM) of 0.873. It also gave a relative viability ([2]; 0.253 µM) of 0.738, a relative viability ([2]; 0.8 µM) of 0.955 and a relative viability ([2]; 2.53 µM) of 0.936. For the same cell line, the relative viability ([2]; 8 µM) was 1.05.

With NCI-H2405 the relative viability ([1]; 0.08 µM) was 1.07, the relative viability ([1]; 0.253 µM) was 1.06 and the relative viability ([1]; 0.8 µM) was 1.03. For the same cell line, the relative viability ([1]; 2.53 µM) was 0.863, the relative viability ([1]; 8 µM) was 1.01 and the relative viability ([2]; 0.08 µM) was 0.869. The relative viability ([2]; 0.253 µM) was 0.826, the relative viability ([2]; 0.8 µM) was 0.912 and the relative viability ([2]; 2.53 µM) was 0.928. It also gave a relative viability ([2]; 8 µM) of 0.944.

NCI-H3122 gave a relative viability ([1]; 0.08 µM) of 1.07, a relative viability ([1]; 0.253 µM) of 1.07 and a relative viability ([1]; 0.8 µM) of 1.01. It also gave a relative viability ([1]; 2.53 µM) of 1.04, a relative viability ([1]; 8 µM) of 0.974 and a relative viability ([2]; 0.08 µM) of 1.03. The relative viability ([2]; 0.253 µM) was 0.957, the relative viability ([2]; 0.8 µM) was 1.06 and the relative viability ([2]; 2.53 µM) was 1.07. For the same cell line, the relative viability ([2]; 8 µM) was 1.03.

Work on PC-3 [JPC-3] yielded a relative viability ([1]; 0.08 µM) of 1.09, a relative viability ([1]; 0.253 µM) of 1.06 and a relative viability ([1]; 0.8 µM) of 1.11. The relative viability ([1]; 2.53 µM) was 0.705, the relative viability ([1]; 8 µM) was 0.982 and the relative viability ([2]; 0.08 µM) was 1.06. For the same cell line, the relative viability ([2]; 0.253 µM) was 0.948, the relative viability ([2]; 0.8 µM) was 0.987 and the relative viability ([2]; 2.53 µM) was 1.07. The relative viability ([2]; 8 µM) was 1.02.

Work on PC-14 yielded a relative viability ([1]; 0.08 µM) of 1.04, a relative viability ([1]; 0.253 µM) of 1.05 and a relative viability ([1]; 0.8 µM) of 1.09. It also gave a relative viability ([1]; 2.53 µM) of 0.84, a relative viability ([1]; 8 µM) of 0.933 and a relative viability ([2]; 0.08 µM) of 1.07. The relative viability ([2]; 0.253 µM) was 0.927, the relative viability ([2]; 0.8 µM) was 0.99 and the relative viability ([2]; 2.53 µM) was 0.982. The relative viability ([2]; 8 µM) was 0.97.

RERF-LC-KJ showed a relative viability ([1]; 0.08 µM) of 1.06, a relative viability ([1]; 0.253 µM) of 1.04 and a relative viability ([1]; 0.8 µM) of 1.14. For the same cell line, the relative viability ([1]; 2.53 µM) was 0.902, the relative viability ([1]; 8 µM) was 0.946 and the relative viability ([2]; 0.08 µM) was 1.03. The relative viability ([2]; 0.253 µM) was 0.922, the relative viability ([2]; 0.8 µM) was 1 and the relative viability ([2]; 2.53 µM) was 1.02. For the same cell line, the relative viability ([2]; 8 µM) was 0.906.

For SK-LU-1, the relative viability ([1]; 0.08 µM) was 1.14, the relative viability ([1]; 0.253 µM) was 1.17 and the relative viability ([1]; 0.8 µM) was 1.05. The relative viability ([1]; 2.53 µM) was 0.98, the relative viability ([1]; 8 µM) was 1.06 and the relative viability ([2]; 0.08 µM) was 0.882. For the same cell line, the relative viability ([2]; 0.253 µM) was 0.748, the relative viability ([2]; 0.8 µM) was 0.898 and the relative viability ([2]; 2.53 µM) was 0.899. For the same cell line, the relative viability ([2]; 8 µM) was 0.879.

Cell Line SK-MES-1 has a relative viability ([1]; 0.08 µM) of 1.12, a relative viability ([1]; 0.253 µM) of 1.22 and a relative viability ([1]; 0.8 µM) of 1.02. It also gave a relative viability ([1]; 2.53 µM) of 1.1, a relative viability ([1]; 8 µM) of 1.06 and a relative viability ([2]; 0.08 µM) of 0.991. The relative viability ([2]; 0.253 µM) was 0.939, the relative viability ([2]; 0.8 µM) was 0.969 and the relative viability ([2]; 2.53 µM) was 0.981. For the same cell line, the relative viability ([2]; 8 µM) was 0.983.

SW 900 gave a relative viability ([1]; 0.08 µM) of 0.771, a relative viability ([1]; 0.253 µM) of 0.589 and a relative viability ([1]; 0.8 µM) of 0.82. For the same cell line, the relative viability ([1]; 2.53 µM) was 0.68, the relative viability ([1]; 8 µM) was 0.742 and the relative viability ([2]; 0.08 µM) was 0.699. For the same cell line, the relative viability ([2]; 0.253 µM) was 0.954, the relative viability ([2]; 0.8 µM) was 0.514 and the relative viability ([2]; 2.53 µM) was 0.913. It also gave a relative viability ([2]; 8 µM) of 1.13.

Cell Line SW 1573 has a relative viability ([1]; 0.08 µM) of 1.03, a relative viability ([1]; 0.253 µM) of 1.05 and a relative viability ([1]; 0.8 µM) of 0.958. The relative viability ([1]; 2.53 µM) was 0.857, the relative viability ([1]; 8 µM) was 0.934 and the relative viability ([2]; 0.08 µM) was 0.936. For the same cell line, the relative viability ([2]; 0.253 µM) was 0.79, the relative viability ([2]; 0.8 µM) was 0.909 and the relative viability ([2]; 2.53 µM) was 0.994. For the same cell line, the relative viability ([2]; 8 µM) was 0.896.
